Test results reported in patent publication US12234230B2, “Substituted benzyl-triazole compounds for Cbl-b inhibition, and further uses thereof” (Nurix Therapeutics, Inc., priority 2019, dated 2025).
Like-named read-outs stand apart in the source and are kept apart here.

How the values were obtained:
[1] = molecular target: Cbl-b (Homo sapiens (Human), UniProt Q13191); assay: Cbl-b displacement assay (Cbl-b inhibition assay), Biological Example 1; format: binding
Experimental: The ability of candidate compounds to displace a known inhibitor and thereby inhibit Cbl-b activity was measured by monitoring the interaction of Cbl-b with a fluorophore-labeled probe in the presence of the candidate compound.
Following the one hour incubation, the plates were read for TR-FRET signal at 520/620 nm using an Envision plate reader (Perkin Elmer).

[2] = system: primary human total T-cells; assay: Primary human total T-cell activation (IL-2 secretion, CD25 surface staining), Biological Example 2; details: fold change over baseline; for CD25 staining CD3/CD28 0.3 μM / IL-2 secretion CD3/CD28 0.3 μM: 0.3 μM inhibitor; for CD25 staining CD3/CD28 0.3 μM / IL-2 secretion CD3/CD28 0.3 μM / CD25 staining CD3/CD28 1 μM / IL-2 secretion CD3/CD28 1 μM: anti-CD3 and anti-CD28 co-stimulation; for CD25 staining CD3/CD28 1 μM / IL-2 secretion CD3/CD28 1 μM / CD25 staining CD3 1 μM / IL-2 secretion CD3 1 μM: 1 μM inhibitor; for CD25 staining CD3 1 μM / IL-2 secretion CD3 1 μM / CD25 staining CD3 3 μM / IL-2 secretion CD3 3 μM: anti-CD3 stimulation alone; for CD25 staining CD3 3 μM / IL-2 secretion CD3 3 μM: 3 μM inhibitor
Experimental: Peripheral blood mononuclear cells (PBMC) were obtained either: 1) by using Ficoll-Paque™ (GE Healthcare) for separation of peripheral blood hematopoietic cells from buffy coats of healthy human donors; or 2) directly from LeukoPak donations. […] The cells were rested overnight at 37° C. 5% CO2. The Cbl-inhibitor was added to 1×10^5 cells per well and the plate was incubated for one hour at 37° C. in 5% CO2 at the concentrations indicated (Table 3) with a final DMSO concentration of <0.1%. For samples stimulated with anti-CD3 antibody and anti-CD28 antibody (anti-CD3/anti-CD28), the Cbl-b inhibitor concentrations tested were 1 μM, and 0.3 μM. For samples stimulated with anti-CD3 antibody alone (anti-CD3), the Cbl-b inhibitor concentrations tested were 3 μM, and 1 μM. […] To prepare plates with plate bound anti-CD3 antibody (OKT3), 96-well round bottom tissue culture plates were coated with 100 μL of anti-CD3 antibody (OKT3) at 10 μg/mL for 4 hours at 37° C. 5% CO2 in phosphate buffered saline (PBS). […] Cells were stimulated for 48 hours prior to harvesting the cell free supernatant and staining the cell population for surface marker assessment by flow cytometry. Supernatants were analyzed for cytokine secretion, including IL-2 by ELISA (R&D Systems, Peprotech or Life Technologies) or Luminex multiplex kits (Procarta Life Technologies) following the manufacturer's protocol. Cells were stained with anti-CD25 antibody (BD Biosciences) to assess levels of surface marker of activation.
Readouts were reported as fold change over baseline. Baseline for this study was the measurement obtained from total human T-cells stimulated with anti-CD3 antibody and with soluble anti-CD28 antibody, wherein the cells were not incubated with a Cbl-b inhibitor (Table 3).

[3] = 0.125 nM Cbl-b final concentration (Low), read-out: Cbl-b activity IC50 (Low)
[4] = 0.5 nM Cbl-b final concentration (High), read-out: Cbl-b activity IC50 (High)
[5] = read-out: IC50 values in the Cbl-b inhibition assay of Biological Example 1

Cbl-b, sequence (Q13191 36-427): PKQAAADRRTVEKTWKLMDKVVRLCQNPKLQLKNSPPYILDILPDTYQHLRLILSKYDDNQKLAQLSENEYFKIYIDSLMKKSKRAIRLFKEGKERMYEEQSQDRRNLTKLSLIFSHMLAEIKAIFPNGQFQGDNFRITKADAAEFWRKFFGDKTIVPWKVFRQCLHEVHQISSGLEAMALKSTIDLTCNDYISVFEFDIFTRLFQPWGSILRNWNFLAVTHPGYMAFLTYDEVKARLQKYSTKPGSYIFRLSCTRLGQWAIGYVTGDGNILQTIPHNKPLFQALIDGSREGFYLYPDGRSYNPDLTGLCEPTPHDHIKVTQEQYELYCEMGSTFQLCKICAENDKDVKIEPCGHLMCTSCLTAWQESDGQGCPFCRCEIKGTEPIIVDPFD

| SMILES | IC50 [1, 3] [nM] | CD25 staining CD3/CD28 0.3 μM [2] | IL-2 secretion CD3/CD28 0.3 μM [2] | CD25 staining CD3/CD28 1 μM [2] | IL-2 secretion CD3/CD28 1 μM [2] | CD25 staining CD3 1 μM [2] | IL-2 secretion CD3 1 μM [2] | CD25 staining CD3 3 μM [2] | IL-2 secretion CD3 3 μM [2] | IC50 [1, 4] [nM] | IC50 [1, 5] [nM] |
| --- | --- | --- | --- | --- | --- | --- | --- | --- | --- | --- | --- |
| C[C@@H]1CN(Cc2cc3c(c(C(F)(F)F)c2)CN(c2cccc([C@]4(c5nncn5C)C[C@H](CC#N)C4)c2)C3=O)CCC1(F)F [Compound 51, 2-((1R,3r)-3-(3-(6-(((R)-4,4-difluoro-3-methylpiperidin-1-yl)methyl)-1-oxo-4-(trifluoromethyl)isoindolin-2-yl)phenyl)-3-(4-methyl-4H-1,2,4-triazol-3-yl)cyclobutyl)acetonitrile] | < 5 | B (B indicates 1.24-1.39 fold) | A (A indicates >35 fold) | B (B indicates 1.24-1.39 fold) | A (A indicates >35 fold) | A (A indicates >2.5 fold) | A (A indicates >1.1 fold) | A (A indicates >2.5 fold) | A (A indicates >1.1 fold) |  |  |
| Cc1cc(C(=O)Nc2cccc([C@]3(c4nncn4C)C[C@H](C)C3)c2)nc(C2CC2)n1 [Compound 22, 2-cyclopropyl-6-methyl-N-{3-[(1s,3r)-3-methyl-1-(4-methyl-1,2,4-triazol-3-yl)cyclobutyl]phenyl}pyrimidine-4-carboxamide] | 20 to 100 |  | C (C indicates <20 fold) |  | C (C indicates <20 fold) | C (C indicates <1.5 fold) | C (C indicates <0.70 fold) | C (C indicates <1.5 fold) | C (C indicates <0.70 fold) |  |  |
| C[C@@H]1CN(Cc2cc3c(c(C(F)(F)F)c2)CN(c2cccc([C@]4(c5nncn5C)C[C@H](O)C4)c2)C3=O)CCC1(F)F [Compound 34, 6-(((R)-4,4-difluoro-3-methylpiperidin-1-yl)methyl)-2-(3-(trans-3-hydroxy-1-(4-methyl-4H-1,2,4-triazol-3-yl)cyclobutyl)phenyl)-4-(trifluoromethyl)isoindolin-1-one] | 5 to 20 | B (B indicates 1.24-1.39 fold) | C (C indicates <20 fold) | B (B indicates 1.24-1.39 fold) | A (A indicates >35 fold) | B (B indicates 1.5-2.5 fold) | A (A indicates >1.1 fold) | B (B indicates 1.5-2.5 fold) | A (A indicates >1.1 fold) |  |  |
| C[C@H]1CCCN(Cc2cc3c(c(C(F)(F)F)c2)CN(c2cccc([C@]4(c5nncn5C)C[C@H](C#N)C4)c2)C3=O)C1 [Compound 39, (1S,3r)-3-(4-methyl-4H-1,2,4-triazol-3-yl)-3-(3-(6-(((S)-3-methylpiperidin-1-yl)methyl)-1-oxo-4-(trifluoromethyl)isoindolin-2-yl)phenyl)cyclobutane-1-carbonitrile] | < 5 | B (B indicates 1.24-1.39 fold) | A (A indicates >35 fold) | B (B indicates 1.24-1.39 fold) | A (A indicates >35 fold) | A (A indicates >2.5 fold) | A (A indicates >1.1 fold) | A (A indicates >2.5 fold) | A (A indicates >1.1 fold) |  |  |
| Cn1cnnc1[C@@H](c1cccc(N2Cc3c(cccc3C(F)(F)F)C2=O)c1)C1CCC1 [Compound 8, (R)-2-(3-(cyclobutyl(4-methyl-4H-1,2,4-triazol-3-yl)methyl)phenyl)-4-(trifluoromethyl)isoindolin-1-one] |  |  |  |  |  |  |  |  |  | 5 to 20 | 5 to 20 |
| C[C@@H]1CN(Cc2cc3c(c(C(F)(F)F)c2)CN(c2cccc([C@]4(c5nncn5C)C[C@@H](C)C4)c2)C3=O)CCC1(F)F [Compound 19, 6-(((R)-4,4-difluoro-3-methylpiperidin-1-yl)methyl)-2-(3-((1s,3S)-3-methyl-1-(4-methyl-4H-1,2,4-triazol-3-yl)cyclobutyl)phenyl)-4-(trifluoromethyl)isoindolin-1-one] | 20 to 100 |  | C (C indicates <20 fold) |  | C (C indicates <20 fold) | C (C indicates <1.5 fold) | C (C indicates <0.70 fold) | C (C indicates <1.5 fold) | C (C indicates <0.70 fold) |  |  |
| Cn1cnnc1[C@H](c1cccc(N2Cc3c(cccc3C(F)(F)F)C2=O)c1)C1CCC1 [Compound 9, (S)-2-(3-(cyclobutyl(4-methyl-4H-1,2,4-triazol-3-yl)methyl)phenyl)-4-(trifluoromethyl)isoindolin-1-one] |  |  |  |  |  |  |  |  |  | > 100 |  |
| C[C@H]1CCCN(Cc2cc3c(c(C(F)(F)F)c2)CN(c2cccc([C@@H](c4nncn4C)C4CCC4)c2)C3=O)C1 [Compound 4, 2-(3-((S)-cyclobutyl(4-methyl-4H-1,2,4-triazol-3-yl)methyl)phenyl)-6-(((S)-3-methylpiperidin-1-yl)methyl)-4-(trifluoromethyl)isoindolin-1-one] | < 5 |  |  |  |  |  |  |  |  |  | ≤ 5 |
| C[C@H]1CCCN(Cc2cc3c(c(C4CC4)n2)CN(c2cccc([C@@H](c4nncn4C)C4CCC4)c2)C3=O)C1 [Compound 6, 2-(3-((S)-cyclobutyl(4-methyl-4H-1,2,4-triazol-3-yl)methyl)phenyl)-4-cyclopropyl-6-(((S)-3-methylpiperidin-1-yl)methyl)-2,3-dihydro-1H-pyrrolo[3,4-c]pyridin-1-one] | 20 to 100 |  |  |  |  |  |  |  |  |  | 20 to 100 |
| CC[C@@H]1CN(Cc2cc3c(c(C(F)(F)F)c2)CN(c2cccc([C@]4(c5nncn5C)C[C@@H](C)C4)c2)C3=O)CCO1 [Compound 28, 6-(((R)-2-ethylmorpholino)methyl)-2-(3-((1s,3S)-3-methyl-1-(4-methyl-4H-1,2,4-triazol-3-yl)cyclobutyl)phenyl)-4-(trifluoromethyl)isoindolin-1-one] | 5 to 20 |  |  |  |  |  |  |  |  |  |  |
| Cn1cnnc1[C@]1(c2cccc(N3Cc4c(cc(CN5CCO[C@H](CC#N)C5)cc4C(F)(F)F)C3=O)c2)C[C@H](C)C1 [Compound 30, 2-((R)-4-((2-(3-((1s,3S)-3-methyl-1-(4-methyl-4H-1,2,4-triazol-3-yl)cyclobutyl)phenyl)-3-oxo-7-(trifluoromethyl)isoindolin-5-yl)methyl)morpholin-2-yl)acetonitrile] | 5 to 20 |  |  |  |  |  |  |  |  |  |  |
| Cn1cnnc1C1(c2cccc(N3Cc4c(cccc4C(F)(F)F)C3=O)c2)CCOC1 (centres unmarked) [Compound 10, 2-(3-(3-(4-methyl-4H-1,2,4-triazol-3-yl)tetrahydrofuran-3-yl)phenyl)-4-(trifluoromethyl)isoindolin-1-one] | > 100 |  |  |  |  |  |  |  |  |  |  |
| Cn1cnnc1C(c1cccc(N2Cc3c(cccc3C(F)(F)F)C2=O)c1)C1COC1 (centres unmarked) [Compound 7, 2-(3-((4-methyl-4H-1,2,4-triazol-3-yl)(oxetan-3-yl)methyl)phenyl)-4-(trifluoromethyl)isoindolin-1-one] | > 100 |  |  |  |  |  |  |  |  |  | > 100 |
